Laboratory results as given in the supplement of paper PMC8671470.

Legend:
Details in all cases: 72 h
[1] = tested on: myeloid leukemia patient primary cells Pat.2; test: area under dose-response curve (viability, 1 nM-10 uM) (fraction (0-1)); higher = more sensitive
Method: (§1)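 AUC (0–1, higher = more sensitive) of the 5-point dose–response (1 nM–10 µM, 72 h, CellTiter-Glo) in primary AML/CML patient mononuclear cells. 0.030103 is the floor for inactive compounds.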

[2] = tested on: myeloid leukemia patient primary cells Pat.4; test: as above
Method: as §1

[3] = tested on: myeloid leukemia patient primary cells Pat.9; test: as above
Method: as §1

[4] = tested on: myeloid leukemia patient primary cells Pat.13; test: as above
Method: as §1

[5] = tested on: myeloid leukemia patient primary cells Pat.14; test: as above
Method: as §1

[6] = tested on: myeloid leukemia patient primary cells Pat.7; test: as above
Method: as §1

[7] = tested on: myeloid leukemia patient primary cells Pat.15; test: as above
Method: as §1

[8] = tested on: myeloid leukemia patient primary cells Pat.12; test: as above
Method: as §1

[9] = tested on: myeloid leukemia patient primary cells Pat.10; test: as above
Method: as §1

[10] = tested on: myeloid leukemia patient primary cells Pat.6; test: as above
Method: as §1

[11] = tested on: myeloid leukemia patient primary cells Pat.1; test: as above
Method: as §1

[12] = tested on: myeloid leukemia patient primary cells Pat.5; test: as above
Method: as §1

[13] = tested on: myeloid leukemia patient primary cells Pat.3; test: as above
Method: as §1

[14] = tested on: myeloid leukemia patient primary cells Pat.11; test: as above
Method: as §1

[15] = tested on: myeloid leukemia patient primary cells Pat.8; test: as above
Method: as §1

LAMA-84 = test: cell viability (% survival relative to DMSO control, bortezomib = 0%); higher = less cytotoxic
Method in brief: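 Percent survival is reported as the mean of duplicate wells. Cells from 10 AML and 5 CML lines were plated in 384-well plates containing compounds at 1, 10, 100, 1000 or 10000 nM and kept for 72 h at 37 °C in 5% CO2. Readout used CellTiter-Glo luminescence, scaled so that vehicle equals 100% and a 10 µM positive control equals 0%.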

HL-60 = test: cell viability (% survival relative to DMSO control); higher = less cytotoxic
Method in brief: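 HL-60 cells grown in RPMI 1640 with 10% FBS were rescreened against the full library in 384-well plates, in duplicate, at five tenfold concentrations from 1 to 10,000 nM, alongside DMSO or 100 nM of one of three metabolic inhibitors for 72 h at 37 °C, 5% CO2. Reference wells contained DMSO or 10 μM proteasome inhibitor. Viability was read with CellTiter-Glo and normalised to these reference wells, and where reported, area under the curve was taken from four-parameter log-logistic fits in drc and PharmacoGx.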

[16] = tested on: myeloid leukemia patient primary cells Pat.15; test: cell viability (% survival relative to DMSO control); higher = less cytotoxic
Method in brief: (§2)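 Where an area under the curve appears, it was computed with the drc and PharmacoGx R packages from log-logistic fits. Those fits used four parameters. The underlying viability data came from CellTiter-Glo after 72 h, normalised to DMSO and 10 μM proteasome-inhibitor wells, with thawed, Ficoll-purified AML or CML patient mononuclear cells at 10,000 cells/well in RPMI 1640 with 10% FBS on 384-well plates pre-printed with 70 compounds at five tenfold concentrations (1–10,000 nM) in duplicate.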

[17] = tested on: myeloid leukemia patient primary cells Pat.12; test: as above
Method in brief: as §2

[18] = tested on: myeloid leukemia patient primary cells Pat.10; test: as above
Method in brief: as §2

[19] = tested on: myeloid leukemia patient primary cells Pat.6; test: as above
Method in brief: as §2

[20] = tested on: myeloid leukemia patient primary cells Pat.11; test: as above
Method in brief: as §2

COc1cc(/C=C/C(=O)N2CCC=CC2=O)cc(OC)c1OC [Piperlongumine]
Details	area under dose-response curve
[1]	0.125
[2]	0.21
[3]	0.505
[4]	0.149
[5]	0.244
[6]	0.0802
[7]	0.191
[8]	0.162
[9]	< 0.0301
[10]	0.116
[11]	0.143
[12]	0.585
[13]	0.219
[14]	0.121
[15]	0.144

cell viability [%]
Details	LAMA-84	[16]	[17]	[18]	[19]	[20]
1 nM	104	84	99.6	79.5	83.2	94.1
10 nM	106	96.2	88.9	77.8	96.6	98.5
100 nM	104	98.5	95.2	71.8	86.2	> 100
1000 nM	98.8	70.3	80.4	45.5	> 100	> 100
10000 nM	2.16	1.42	3.26	> 100	2.54	5.04

cell viability [%], HL-60
Details	0.001 µM	0.01 µM	0.1 µM	1 µM	10 µM
co-treatment: AZD3965 100 nM	101	104	102	99.9	-0.192
co-treatment: DMSO vehicle	98.08	100.5	102.8	97.9	-0.533
co-treatment: GSK2194069 100 nM	101	102	104.6	87.9	-0.0941
co-treatment: pictilisib 100 nM	97.3	94.8	94.9	83.8	3.95

O=C(O)C1=CC(=C(c2ccc(O)c(C(=O)O)c2)c2ccc(O)c(C(=O)O)c2)C=CC1=O [Aurintricarboxylic acid]
Details	area under dose-response curve
[1]	< 0.0301
[2]	< 0.0301
[3]	< 0.0301
[4]	< 0.0301
[5]	< 0.0301
[6]	< 0.0301
[7]	< 0.0301
[8]	< 0.0301
[9]	< 0.0301
[10]	< 0.0301
[11]	< 0.0301
[12]	< 0.0301
[13]	0.0466
[14]	< 0.0301
[15]	< 0.0301

cell viability [%]
Details	LAMA-84	[16]	[17]	[18]	[19]	[20]
1 nM	105	96.4	96.5	98.4	99.8	> 100
10 nM	102	> 100	97.4	90.3	97.5	95.8
100 nM	100	89.3	99.8	91.9	> 100	> 100
1000 nM	89	86.6	> 100	> 100	> 100	> 100
10000 nM	106	87.3	99.6	> 100	97.7	> 100

cell viability [%], HL-60
Details	0.001 µM	0.01 µM	0.1 µM	1 µM	10 µM
co-treatment: AZD3965 100 nM	95.9	101	101	94.5	98.9
co-treatment: DMSO vehicle	101	81.6	106	104	97.6
co-treatment: GSK2194069 100 nM	94.1	82.3	98.7	98.3	82.5
co-treatment: pictilisib 100 nM	99.3	99.3	96.2	101	103
